In patent publication US8778964B2, “Hydroxy-substituted imidazo[1,2-a]-pyridinecarboxamides and their use” (Bayer Pharma Aktiengesellschaft, priority 2012, dated 2014):
Structures can show the parent of a compound that is named as a salt.

What follows are compounds tested on recombinant guanylate cyclase reporter cell line (assay: Action on recombinant guanylate cyclase reporter cell line (MEC)). Details: in some cases mean values obtained from individual determinations.
Format: cell-based
Outline: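 Cell-based reporter assay with recombinant guanylate cyclase expressed in a reporter cell line, per a published method. Activity reported as minimal effective concentration (MEC), in some cases as the mean of individual determinations.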

SMILES	minimal effective concentration [µM]
Cc1nc2c(OCc3c(F)cccc3F)cccn2c1C(=O)NC1(CO)CCCC1 [Example 31, 8-[(2,6-difluorobenzyl)oxy]-N-[1-(hydroxymethyl)cyclopentyl]-2-methylimidazo[1,2-a]pyridine-3-carboxamide]	1
CCCC[C@H](CO)NC(=O)c1c(C)nc2c(OCc3cccc(F)c3)cccn12 [Example 6, 8-[(3-fluorobenzyl)-oxy]-N-[(2R)-1-hydroxyhexan-2-yl]-2-methylimidazo[1,2-a]pyridine-3-carboxamide]	0.1
Cc1nc2c(OCc3c(F)cccc3F)cccn2c1C(=O)N[C@@H](CO)C(C)C [Example 29, 8-[(2,6-difluorobenzyl)oxy]-N-[(2R)-1-hydroxy-3-methylbutan-2-yl]-2-methylimidazo[1,2-a]-pyridine-3-carboxamide]	0.1
CCCC[C@H](CO)NC(=O)c1c(C)nc2c(OCc3c(F)ccc(F)c3F)cccn12 [Example 2, N-[(2R)-1-hydroxyhexan-2-yl]-2-methyl-8-[(2,3,6-trifluorobenzyl)oxy]imidazo[1,2-a]pyridine-3-carboxamide]	0.03
Cc1nc2c(OCc3c(F)cccc3F)cccn2c1C(=O)NC(C)(C)CO [Example 34, 8-[(2,6-difluorobenzyl)oxy]-N-(1-hydroxy-2-methylpropan-2-yl)-2-methylimidazo[1,2-a]-pyridine-3-carboxamide]	0.3
Cc1nc2c(OCc3c(F)cccc3F)cccn2c1C(=O)NCCOCCO [Example 24, 8-[(2,6-difluorobenzyl)oxy]-N-[2-(2-hydroxy-ethoxy)ethyl]-2-methylimidazo[1,2-a]pyridine-3-carboxamide]	1
Cc1nc2c(OCc3c(F)cccc3F)cccn2c1C(=O)N[C@@H](CO)C(C)(C)C [Example 35, 8-[(2,6-difluorobenzyl)oxy]-N-[(2R)-1-hydroxy-3,3-dimethylbutan-2-yl]-2-methylimidazo[1,2-a]-pyridine-3-carboxamide]	0.3
Cc1nc2c(OCC3CCCCC3)cccn2c1C(=O)NCCCCO [Example 74, 8-(cyclohexylmethoxy)-N-(4-hydroxybutyl)-2-methylimidazo[1,2-a]pyridine-3-carboxamide]	0.2
Cc1nc2c(OCc3c(F)cccc3F)cc(Cl)cn2c1C(=O)N[C@@H](CO)CCCO [Example 127, 6-Chloro-8-[(2,6-difluorobenzyl)oxy]-N-[(2R)-1,5-dihydroxypentan-2-yl]-2-methylimidazo[1,2-a]-pyridine-3-carboxamide]	0.3
Cc1nc2c(OCc3c(F)cccc3F)cccn2c1C(=O)NC(CO)CC(F)(F)F (racemic) [Example 113, rac-8-[(2,6-Difluorobenzyl)oxy]-2-methyl-N-(4,4,4-trifluoro-1-hydroxybutan-2-yl)imidazo[1,2-a]-pyridine-3-carboxamide]	0.03
Cc1nc2c(OCC3CCCCC3)cccn2c1C(=O)N[C@H](CO)CC(C)C [Example 95, 8-(cyclohexylmethoxy)-N-[(2S)-1-hydroxy-4-methylpentan-2-yl]-2-methylimidazo[1,2-a]pyridine-3-carboxamide]	3
CCCC[C@H](CO)NC(=O)c1c(C)nc2c(OCc3c(F)cc(F)cc3F)cccn12 [Example 15, N-[(2R)-1-Hydroxyhexan-2-yl]-2-methyl-8-[(2,4,6-trifluorobenzyl)oxy]imidazo[1,2-a]pyridine-3-carboxamide]	0.1
CCCCC(NC(=O)c1c(C)nc2c(OCCC(C)C)cc(C)cn12)C(C)(C)O (stereo not drawn) [Example 167, ent-N-(2-Hydroxy-2-methylheptan-3-yl)-2,6-dimethyl-8-(3-methylbutoxy)imidazo[1,2-a]pyridine-3-carboxamide]	2
Cc1nc2c(OCC3CCCCC3)cccn2c1C(=O)NC(CO)(CO)CO [Example 77, 8-(cyclohexylmethoxy)-N-[1,3-dihydroxy-2-(hydroxymethyl)propan-2yl]-2-methylimidazo[1,2-a]pyridine-3-carboxamide formate]	0.3
Cc1nc2c(OCC3CCCCC3)cccn2c1C(=O)NC1(CO)CCCC1 [Example 92, 8-(cyclohexylmethoxy)-N-[1-(hydroxymethyl)cyclopentyl]-2-methylimidazo[1,2-a]pyridine-3-carboxamide]	1
CC[C@H](CO)NC(=O)c1c(C)nc2c(OCC3CCCCC3)cccn12 [Example 72, 8-(cyclohexylmethoxy)-N-[(2R)-1-hydroxybutan-2-yl]-2-methylimidazo[1,2-a]pyridine-3-carboxamide]	0.1
C=CCC(CO)NC(=O)c1c(C)nc2c(OCC3CCCCC3)cccn12 (racemic) [Example 70, (rac)-8-(cyclohexylmethoxy)-N-(1-hydroxypent-4-en-2-yl)-2-methylimidazo[1,2-a]pyridine-3-carboxamide]	0.1
Cc1nc2c(OCc3c(F)cccc3F)cccn2c1C(=O)NC(CO)CC(F)(F)F (racemic) [Example 100, rac-8-[(2,6-Difluorobenzyl)oxy]-2-methyl-N-(4,4,4-trifluoro-1-hydroxybutan-2-yl)imidazo[1,2-a]-pyridine-3-carboxamide trifluoroacetate]	0.03
Cc1nc2c(OCC3CCCCC3)cccn2c1C(=O)N[C@@H]1CCCC[C@H]1O (racemic) [Example 78, (rac)-8-(cyclohexylmethoxy)-N-[(trans)-2-hydroxycyclohexyl]-2-methylimidazo[1,2-a]-pyridine-3-carboxamide]	0.3
CCCC[C@H](CO)NC(=O)c1c(C)nc2c(OCc3c(F)cccc3F)cc(F)cn12 [Example 132, 8-[(2,6-difluorobenzyl)oxy]-6-fluoro-N-[(2R)-1-hydroxyhexan-2-yl]-2-methylimidazo[1,2-a]pyridine-3-carboxamide]	0.03
Cc1nc2c(OCc3cccc(Cl)c3Cl)cccn2c1C(=O)NCCC1(O)CCCC1 [Example 47, 8-[(2,3-dichlorobenzyl)oxy]-N-[2-(1-hydroxycyclopentyl)ethyl]-2-methylimidazo[1,2-a]-pyridine-3-carboxamide]	0.3
Cc1nc2c(OCc3c(F)cccc3F)cccn2c1C(=O)NCC(C)(C)CO [Example 41, 8-[(2,6-difluorobenzyl)oxy]-N-(3-hydroxy-2,2-dimethylpropyl)-2-methylimidazo[1,2-a]-pyridine-3-carboxamide]	3
Cc1nc2c(OCC3CCCCC3)cccn2c1C(=O)N[C@H]1CCC[C@@H]1O (racemic) [Example 71, (rac)-8-(cyclohexylmethoxy)-N-[trans-2-hydroxycyclopentyl]-2-methylimidazo[1,2-a]-pyridine-3-carboxamide]	0.1
CCCCC(NC(=O)c1c(C)nc2c(OC(C)c3c(F)cccc3F)cc(C)cn12)C(C)(C)O (single isomer, unassigned; ent-8) [Example 171, ent-8-[1-(2,6-Difluorophenyl)ethoxy]-N-(2-hydroxy-2-methylheptan-3-yl)-2,6-dimethylimidazo-[1,2-a]pyridine-3-carboxamide]	1
